Assay results reported in US8309731B2, “Electronic device including phenanthroline derivative” (E I du Pont de Nemours and Company, priority 2011, dated 2012).
≈ marks a conversion by molar mass, not a printed value.

How the values were obtained:
Assay type in all cases: physicochemical
[1] = Solubility in toluene (Compound Properties, Table 1); conditions: organic solvent or mixture
[2] = Solubility in anisole (footnotes of Table 1); conditions: organic solvent or mixture
[3] = Solubility as observed during work-up of the synthesis; conditions: for solubility of the isolated solid (in words): in toluene and dichloromethane (DCM)
Description: To 2.0 g of dichlorobathophenanthroline (5 mM) from Example 1 was added 3.0 g (11 mM) boronic acid. To this was added 0.15 g Pd2 DBA3 (0.15 mM), 0.1 g tricyclohexylphosphine (0.35 mM) and 3.75 g potassium phosphate (17 mM), and all were dissolved into 30 mL dioxane and 15 mL water. This was mixed and heated in a glove box at 100° C. for 1 hr, then warmed gently (minimum rheostat setting) under nitrogen overnight. On reaching about 80° C. the mixture was a tan brown slurry which slowly became clear brown with a dense precipitate. As the solution refluxed (air condensor) a white powdery precipitate formed. The mixture was cooled and removed from the glove box. The dioxane was removed by evaporation and additional water added. A light brown gummy solid was isolated by filtration and washed with water. […] The product was Compound 4.
Take 2.0 g of dichloro-phen (8 mM) in glove box and add 4.7 g (17 mM) boronic acid. Add 0.15 g Pd2 DBA3 (0.15 mM), 0.1 g tricyclohexylphosphine (0.35 mM) and 3.75 g potassium phosphate (17 mM) and dissolve all into 30 mL dioxane and 15 mL water. Mix and heat in glove box in mantle at 100 C for 1 hr then warm gently (minimum rheostat setting) under nitrogen overnight. Solution immediately is dark purple but on reaching ˜80 C it is a tan brown slurry which slowly becomes clear brown. As the solution refluxes (air condensor) it remains clear brown. Cool and work up by removing from glove box and evaporate out the dioxane then add more water. Filter off light brown gummy solid and wash with water. […] The structure was confirmed by NMR analysis to be Compound 14:
Take 2.5 g of dichloro-phen (10 mM) in glove box and add 8.0 g (22 mM) boronic ester. Add 0.30 g Pd2 DBA3 (0.30 mM), 0.2 g tricylcohexylphosphine (0.70 mM) and 7.5 g potassium phosphate (34 mM) and dissolve all into 60 mL dioxane and 30 mL water. Mix and heat in glove box in mantle at 100 C for 1 hr then warm gently (minimum rheostat setting) under nitrogen overnight. Solution immediately is dark purple but on reaching ˜80 C it is a tan brown slurry which slowly becomes clear brown. […]

**Q.** Which results are given for `c1ccc(-c2cc(-c3ccc4ccccc4c3)nc3c2ccc2c(-c4ccccc4)cc(-c4ccc5ccccc5c4)nc23)cc1` [Compound 21]?
**A.** solubility [1]: 1000 µg/mL (≈ 1.71 mM); solubility [2]: 3000 µg/mL (≈ 5.13 mM)

**Q.** With `c1ccc(N(c2ccccc2)c2cccc(-c3ccnc4c3ccc3c(-c5cccc(N(c6ccccc6)c6ccccc6)c5)ccnc34)c2)cc1` [Compound 20] as the compound, how does the solubility [1] read?
**A.** 32200 µg/mL (≈ 48.3 mM)

**Q.** For `c1ccc(N(c2ccccc2)c2ccc(-c3ccnc4c3ccc3c(-c5ccc(N(c6ccccc6)c6ccccc6)cc5)ccnc34)cc2)cc1` [Compound 14, 4,7-bis(4-diphenylaminophenyl)-1,10-phenanthroline], which “solubility of the isolated solid (in words)” value [3] is on record?
**A.** dissolves well

**Q.** For `c1ccc(-c2cc(-c3ccc(N(c4ccccc4)c4ccccc4)cc3)c3ccc4c(-c5ccc(N(c6ccccc6)c6ccccc6)cc5)cc(-c5ccccc5)nc4c3n2)cc1` [Compound 2], which solubility [1] is on record?
**A.** 7600 µg/mL (≈ 9.28 mM)

**Q.** Which results are given for `c1ccc(-c2cccc(-c3cc(-c4ccccc4)c4ccc5c(-c6ccccc6)cc(-c6cccc(-c7ccccc7)c6)nc5c4n3)c2)cc1` [Compound 16]?
**A.** solubility [1]: 800 µg/mL (≈ 1.26 mM); solubility [2]: 5000 µg/mL (≈ 7.85 mM)

**Q.** For `c1cc(-c2ccnc3c2ccc2c(-c4cccc(-n5c6ccccc6c6ccccc65)c4)ccnc23)cc(-n2c3ccccc3c3ccccc32)c1` [Compound 15], which solubility [1] is on record?
**A.** 20000 µg/mL (≈ 30.2 mM)

**Q.** What about the “solubility of the product (in words)” value ([3]; solvent not stated, observed at chromatography/crystallisation) of the same compound?
**A.** extremely soluble

**Q.** With `c1ccc(-c2cc(-c3ccccc3)c3ccc4c(-c5ccccc5)cc(-c5cccc6ccccc56)nc4c3n2)cc1` [Compound 17] as the compound, how does the solubility [1] read?
**A.** 4200 µg/mL (≈ 7.86 mM)

**Q.** Which solubility [1] does the source give for `Fc1ccccc1-c1cc(-c2ccccc2)c2ccc3c(-c4ccccc4)cc(-c4ccccc4F)nc3c2n1` [Compound 10] here?
**A.** 22200 µg/mL (≈ 42.6 mM)

**Q.** With `c1ccc(-c2cc(-c3cccc(-n4c5ccccc5c5ccccc54)c3)nc3c2ccc2c(-c4ccccc4)cc(-c4cccc(-n5c6ccccc6c6ccccc65)c4)nc23)cc1` [Compound 1] as the compound, how does the solubility [1] read?
**A.** 4800 µg/mL (≈ 5.89 mM)

**Q.** For `c1ccc(-c2cc(-c3c4ccccc4c(-c4ccc(-c5cccc6ccccc56)cc4)c4ccccc34)nc3c2ccc2c(-c4ccccc4)cc(-c4c5ccccc5c(-c5ccc(-c6cccc7ccccc67)cc5)c5ccccc45)nc23)cc1` [Compound 11], which solubility [1] is on record?
**A.** 10100 µg/mL (≈ 9.27 mM)

**Q.** With `c1ccc(-c2ccccc2-c2cc(-c3ccccc3)c3ccc4c(-c5ccccc5)cc(-c5ccccc5-c5ccccc5)nc4c3n2)cc1` [Compound 9] as the compound, how does the solubility [1] read?
**A.** 25600 µg/mL (≈ 40.2 mM)

**Q.** What does the source list for `c1ccc(-c2cc(-c3ccc(N(c4ccccc4)c4ccccc4)cc3)nc3c2ccc2c(-c4ccccc4)cc(-c4ccc(N(c5ccccc5)c5ccccc5)cc4)nc23)cc1` [Compound 4]?
**A.** solubility [1]: 31300 µg/mL (≈ 38.2 mM); solubility of the isolated solid (in words) [3]: dissolved well

**Q.** Which solubility [1] does the source give for `c1ccc(-c2cc(-c3ccc(-c4ccc5ccccc5c4)cc3)nc3c2ccc2c(-c4ccccc4)cc(-c4ccc(-c5ccc6ccccc6c5)cc4)nc23)cc1` [Compound 13] here?
**A.** 2000 µg/mL (≈ 2.71 mM)

**Q.** Which solubility [1] does the source give for `c1ccc(-c2cc(-c3ccc(-c4cccc5ccccc45)cc3)nc3c2ccc2c(-c4ccccc4)cc(-c4ccc(-c5cccc6ccccc56)cc4)nc23)cc1` [Compound 3] here?
**A.** 4500 µg/mL (≈ 6.11 mM)

**Q.** Which solubility [1] does the source give for `c1ccc(-c2ccc3c(c2)c2cc(-c4ccccc4)ccc2n3-c2cccc(-c3cc(-c4ccccc4)c4ccc5c(-c6ccccc6)cc(-c6cccc(-n7c8ccc(-c9ccccc9)cc8c8cc(-c9ccccc9)ccc87)c6)nc5c4n3)c2)cc1` [Compound 12] here?
**A.** 22800 µg/mL (≈ 20.4 mM)

**Q.** For `c1ccc(-c2cc(-c3ccccc3)c3ccc4c(-c5ccccc5)cc(-c5ccc6ccccc6c5)nc4c3n2)cc1` [Compound 18], which solubility [1] is on record?
**A.** 2300 µg/mL (≈ 4.3 mM)
